Experimental data published in patent US12617771B2, “Diphenylpyrazole compound, and preparation method therefor and application thereof” (NORTHWEST A&F UNIVERSITY, priority 2021, dated 2026).
Counter-ions that a name gives are not always drawn.

Legend:
[1] = test system: high resistant strains II of Plutella xylostella (Lianzhou insect source); experiment: Insecticidal synergistic activity with chlorantraniliprole, high resistant strains II (Lianzhou insect source); type: in vivo; details: for Resistance ratio to chlorantraniliprole: high resistant strains II (Lianzhou)
Experimental: (§1) Experiment: 96% chlorantraniliprole (Chl) original drug was prepared into mother liquor with a concentration of 50000 mg/L. During the test, 6 treatment solutions with concentrations of 500, 250, 125, 62.5, 31.25 and 15.63 mg/L were prepared. 200 mg/L of the compound PXG22 of the present invention was added to each treatment solution, 200 mg/L of diethyl maleate (DEM) was used as the control synergist, and water was used as another control. The Plutella xylostella (Linnaeus) larvae was collected from a vegetable field in Yunnan Province. Healthy 3rd instar larvae of the same age were selected for indoor biological activity assay.
(§2) Clean wild cabbage leaves were cut into discs with a diameter of 6.5 cm (avoiding main veins). The leaves were soaked in the pesticide solution for 10 seconds, then taken out, dried at 25° C., and placed in a petri dish with a diameter of 6.5 cm. 10 larvae of the resistant strains of Plutella xylostella at the early stage of 3rd instar were placed in each petri dish, which was covered with double-layer absorbent roll paper, and covered by the upper cover of the petri dish. It was placed face up in an incubator at a temperature of 25±1° C., a relative humidity of 65%-70%, and a light ratio (L:D) of 16: 8 h. Each treatment was replicated 4 times with 10 larvae per replicate. […] The test process is strictly in accordance with the standard: NY/T 1154.7-2006.
(§3) Experimental data analysis was carried out using practical statistical analysis and its computer processing platform (DPS) (TANG Qiyi et al., 1997). The toxicity regression equation of each agent was established, LC50 value and 95% confidence limit were calculated.
(§4) Experiment: The method was the same as in Experimental example 4, and the tested Plutella xylostella was the high resistant strains II against chlorantraniliprole (Lianzhou source). The added concentrations of the compound PXG22 of the present invention were 200 mg/L, 100 mg/L, 50 mg/L and 25 mg/L, and the added concentration of diethyl maleate (DEM) of the control synergist was maintained at 200 mg/L.

[2] = test system: resistant strains of Plutella xylostella; experiment: Insecticidal synergistic activity with chlorantraniliprole, leaf dip, resistant strains (Yunnan); type: in vivo; details: for Resistance ratio to chlorantraniliprole: chlorantraniliprole alone or with 200 mg/L synergist, 48 hours; for LC50 of chlorantraniliprole solution: in vivo
Experimental: as §1, §2, §3

[3] = test system: high resistant strains I of Plutella xylostella (Lianzhou insect source); experiment: Insecticidal synergistic activity with chlorantraniliprole, high resistant strains I (Lianzhou insect source); type: in vivo; details: for Resistance ratio to chlorantraniliprole: high resistant strains I (Lianzhou)
Experimental: as §1, §2, §3
as §4, with “I” for “II”, “100” for “100 mg/L, 50”, “50” for “25”

[4] = test system: ultra-high resistant strains of Plutella xylostella (Huizhou insect source); experiment: Insecticidal synergistic activity with chlorantraniliprole, ultra-high resistant strains (Huizhou insect source); type: in vivo; details: for Resistance ratio to chlorantraniliprole: chlorantraniliprole alone or with 200 mg/L synergist, ultra-high resistant strains (Huizhou); for LC50 of chlorantraniliprole solution: in vivo
Experimental: as §1, §2, §3
Experiment: The method was the same as in Experimental Example 4. The tested Plutella xylostella was ultra-high resistance strains to chlorantraniliprole (Huizhou insect source). The compound PXG22 of the present invention was added at a concentration of 200 mg/L. The control synergist diethyl maleate (DEM) was added at a concentration of 200 mg/L.

[5] = test system: resistant strains of Plutella xylostella; experiment: Insecticidal synergistic activity with indoxacarb, leaf dip, resistant strains (Huizhou); type: in vivo; details: for LC50 of indoxacarb: in vivo; for Resistance ratio to indoxacarb: indoxacarb alone or with 200 mg/L synergist, 48 hours
Experimental: as §1, with “Experiment: 95% indoxacarb (Ind)” for “Experiment: 96% chlorantraniliprole (Chl)”, “the compounds PXG1, PXG2 and” for “the compound”, “invention were” for “invention was”, “in Huizhou city, Guangdong” for “in Yunnan”
as §2, §3

Plutella xylostella GSTs = experiment: Inhibition of total GSTs enzyme of Plutella xylostella (CDNB method); type: biochemical
How it was run: (§5)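 Total GSTs were taken from the 14,000 g supernatant of larval/nymph homogenate in 100 mM sodium phosphate with 1 mM EDTA, pH 7.2. Enzyme (5 μg) was preincubated with compound in PBS pH 7.2 containing 1 mM GSH for 10 min at 30 °C, then started with buffer containing 1 mM CDNB. IC50 was derived from inhibition of the 5-min ΔA340, done in triplicate.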

PxGSTσ2 = PxGSTσ2 (Plutella xylostella, UniProt Q6F443); experiment: Inhibition of PxGSTσ2 recombinant protein; type: biochemical; details: read-out: 100 μM Inhibition rate %
PxGSTσ2, sequence (Q6F443 entry or part of it): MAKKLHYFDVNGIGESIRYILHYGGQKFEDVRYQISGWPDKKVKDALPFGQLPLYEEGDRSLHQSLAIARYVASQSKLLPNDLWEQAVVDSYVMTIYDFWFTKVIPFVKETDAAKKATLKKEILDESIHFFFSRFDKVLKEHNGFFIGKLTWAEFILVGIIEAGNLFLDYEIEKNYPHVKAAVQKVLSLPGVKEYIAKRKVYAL
How it was run: (§6)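 Recombinant Plutella xylostella GSTs (1 μg) preincubated with compound in 100 mM PBS pH 7.2, 10 min, 30 °C; 1 mM CDNB and 1 mM GSH in PBS then added. A340 read every 1 min for 5 min; inhibition from A340 change vs control, IC50 by curve fit, triplicate.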

Mythimna separata GSTs = experiment: Inhibition of total GSTs enzyme of Mythimna separata (CDNB method); type: biochemical; details: 100 μM
How it was run: as §5

[6] = target: Helicoverpa armigera GSTs; experiment: Inhibition of total GSTs enzyme of Helicoverpa armigera (CDNB method); type: biochemical
How it was run: as §5

PxGSTδ1 = PxGSTδ1 (Plutella xylostella, UniProt D7URW9); experiment: Inhibition of PxGSTδ1 recombinant protein; type: biochemical; details: read-out: 100 μM Inhibition rate %
PxGSTδ1, sequence (D7URW9 entry or part of it): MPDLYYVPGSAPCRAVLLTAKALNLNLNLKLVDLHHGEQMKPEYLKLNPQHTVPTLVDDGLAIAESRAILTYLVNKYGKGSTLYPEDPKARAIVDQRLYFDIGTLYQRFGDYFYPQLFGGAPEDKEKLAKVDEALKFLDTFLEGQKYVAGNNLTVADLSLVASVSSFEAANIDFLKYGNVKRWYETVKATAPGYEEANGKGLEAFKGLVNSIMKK
How it was run: as §6

Chilo suppressalis GSTs = experiment: Inhibition of total GSTs enzyme of Chilo suppressalis (CDNB method); type: biochemical
How it was run: as §5

Carposina sasakii GSTs = experiment: Inhibition of total GSTs enzyme of Carposina sasakii (CDNB method); type: biochemical
How it was run: as §5

Pyrausta nubilalis GSTs = experiment: Inhibition of total GSTs enzyme of Pyrausta nubilalis (CDNB method); type: biochemical
How it was run: as §5

Nilaparvata lugens GSTs = experiment: Inhibition of total GSTs enzyme of Nilaparvata lugens (CDNB method); type: biochemical; details: 100 μM
How it was run: as §5

PxGSTε3 = PxGSTε3 (Plutella xylostella, UniProt O77409); experiment: Inhibition of PxGSTε3 recombinant protein; type: biochemical; details: read-out: 100 μM Inhibition rate %
PxGSTε3, sequence (O77409 entry or part of it): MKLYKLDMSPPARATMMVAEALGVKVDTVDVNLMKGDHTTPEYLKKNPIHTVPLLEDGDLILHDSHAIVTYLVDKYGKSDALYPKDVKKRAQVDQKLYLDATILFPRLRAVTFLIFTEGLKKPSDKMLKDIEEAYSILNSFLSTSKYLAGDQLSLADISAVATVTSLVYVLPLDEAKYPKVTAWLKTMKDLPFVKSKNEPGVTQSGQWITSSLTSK
How it was run: as §6

PxGSTσ1 = PxGSTσ1 (Plutella xylostella, UniProt Q6F436); experiment: Inhibition of PxGSTσ1 recombinant protein; type: biochemical; details: read-out: 100 μM Inhibition rate %
PxGSTσ1, sequence (Q6F436 entry or part of it): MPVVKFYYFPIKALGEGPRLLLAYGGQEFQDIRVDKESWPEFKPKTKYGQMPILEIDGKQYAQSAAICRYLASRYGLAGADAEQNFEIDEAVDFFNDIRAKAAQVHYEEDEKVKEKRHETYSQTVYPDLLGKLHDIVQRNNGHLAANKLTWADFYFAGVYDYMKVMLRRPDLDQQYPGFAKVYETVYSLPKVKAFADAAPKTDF
How it was run: as §6

Spodoptera litura GSTs = experiment: Inhibition of total GSTs enzyme of Spodoptera litura (CDNB method); type: biochemical
How it was run: as §5

[7] = test system: Spodoptera frugiperda GSTs; experiment: Inhibition of total GSTs enzyme of Spodoptera frugiperda (CDNB method); type: biochemical; details: 100 μM
How it was run: as §5

[8] = Plutella xylostella, read-out: LC50 of chlorantraniliprole solution
[9] = chlorantraniliprole alone or with 200 mg/L synergist

| inhibition at 100 µM (PxGSTσ2) [%] | inhibition at 100 µM (PxGSTδ1) [%] | inhibition at 100 µM (PxGSTε3) [%] | inhibition at 100 µM (PxGSTσ1) [%] | SMILES | Resistance ratio to chlorantraniliprole [1, 9] | Resistance ratio to chlorantraniliprole [2] | Resistance ratio to chlorantraniliprole [3, 9] | Resistance ratio to chlorantraniliprole [4] | LC50 of indoxacarb [5] [µg/mL] | Resistance ratio to indoxacarb [5] | LC50 of chlorantraniliprole solution [2] [µg/mL] | LC50 of chlorantraniliprole solution [4] [µg/mL] | also measured |
| --- | --- | --- | --- | --- | --- | --- | --- | --- | --- | --- | --- | --- | --- |
| – | – | – | – | CNC(=O)c1cc(Cl)cc(C)c1NC(=O)c1cc(Br)nn1-c1ncccc1Cl [Chl, Chlorantraniliprole, reference compound] | 631.26 | 479 | 583.74 | 2188.61 | – | – | – | – | LC50 [1, 8]: 145 µg/mL; LC50 ([2]; Plutella xylostella, foliar, 48 h, read-out: LC50 of chlorantraniliprole solution): 110 µg/mL; LC50 [3, 8]: 134 µg/mL; LC50 [4, 8]: 503 µg/mL |
| – | – | – | – | CCOC(=O)/C=C\C(=O)OCC [DEM, diethyl maleate, reference compound] | 469.52 | 217.48 | 232 | 1925.26 | 54.11 | 104.06 | 50.02 | 442.81 | LC50 of chlorantraniliprole solution ([1]; in vivo): 107.99 µg/mL; LC50 of chlorantraniliprole solution ([3]; in vivo): 53.36 µg/mL |
| 58.1 | 68.9 | 17.6 | 25.5 | O=C(NNC(=O)c1cc(-c2ccccc2)nn1-c1ccccc1)c1cc[nH]c(=O)c1 [PXG1, N′-(1,3-diphenyl-1H-pyrazol-5-yl-carbonyl)-2-oxo-1,2-dihydropyridinyl-4-carbohydrazide] | – | – | – | – | 59.13 | 113.71 | – | – | IC50 (Plutella xylostella GSTs): 27.6 µM; 100 μM Inhibition rate % (Plutella xylostella GSTs; 100 μM): 70.90%; 100 μM Inhibition rate % (Mythimna separata GSTs): 95.19%; IC50 [6]: 52.8 µM; 100 μM Inhibition rate % ([6]; 100 μM): 77.22%; IC50 (Chilo suppressalis GSTs): 8.24 µM; 100 μM Inhibition rate % (Chilo suppressalis GSTs; 100 μM): 92.32%; IC50 (Carposina sasakii GSTs): 52.6 µM; 100 μM Inhibition rate % (Carposina sasakii GSTs; 100 μM): 71.91%; IC50 (Pyrausta nubilalis GSTs): 12.1 µM; 100 μM Inhibition rate % (Pyrausta nubilalis GSTs; 100 μM): 87.80%; 100 μM Inhibition rate % (Nilaparvata lugens GSTs): 100.60%; IC50 (Spodoptera litura GSTs): 17.7 µM; 100 μM Inhibition rate % (Spodoptera litura GSTs; 100 μM): 80.06%; 100 μM Inhibition rate % [7]: 58.40% |
| 76.7 | 78.8 | 65.8 | 45.7 | O=C(NNC(=O)c1cc(-c2ccccc2)nn1-c1ccccc1)c1cc(=O)[nH]c2ccccc12 [PXG22, N′-(1,3-diphenyl-1H-pyrazol-5-yl-carbonyl)-2-oxo-1,2-dihydroquinoline-4-yl-carbohydrazide] | 243.13 | 61.04 | 175.82 | 645.43 | 51.21 | 98.48 | 14.04 | 148.45 | Resistance ratio to chlorantraniliprole ([1]; 25 mg/L PXG22 added): 341.48; Resistance ratio to chlorantraniliprole ([1]; 50 mg/L PXG22 added): 312.52; Resistance ratio to chlorantraniliprole ([1]; 100 mg/L PXG22 added): 195.04; Resistance ratio to chlorantraniliprole ([3]; 50 mg/L PXG22 added): 216.91; Resistance ratio to chlorantraniliprole ([3]; 100 mg/L PXG22 added): 92 |
